Consider 52 compounds from patent US20140148484A1, “PYRAZOLE COMPOUNDS FOR TREATING HAIRLOSS” (Boehringer Ingelheim International GmbH, priority 2012, published 2014).

A word on the Ki: it is the dissociation constant of the complex between target and ligand, obtained from inhibition or displacement.

This test addresses T1, human CRTH2 receptor (Homo sapiens, UniProt Q9Y5Y4).
T1 construct: host or cells: CHO-K1 (CHO-K1-hCRTH2 cells); membranes prepared in house from the purchased cell line
T1 sequence (Q9Y5Y4 1-395): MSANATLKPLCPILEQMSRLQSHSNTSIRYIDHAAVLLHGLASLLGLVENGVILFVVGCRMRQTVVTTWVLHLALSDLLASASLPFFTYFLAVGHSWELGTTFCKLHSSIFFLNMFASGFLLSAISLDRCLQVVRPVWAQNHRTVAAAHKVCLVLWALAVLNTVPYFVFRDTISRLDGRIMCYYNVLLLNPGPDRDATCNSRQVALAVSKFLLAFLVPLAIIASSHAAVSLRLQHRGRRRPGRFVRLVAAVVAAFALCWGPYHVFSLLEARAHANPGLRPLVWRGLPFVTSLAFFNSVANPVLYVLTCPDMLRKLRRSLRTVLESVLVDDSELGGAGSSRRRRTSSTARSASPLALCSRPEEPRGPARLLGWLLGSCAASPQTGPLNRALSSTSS
Nature of the test: Human CRTH2 receptor membrane radioligand binding assay (SPA, [3H]-PGD2). The settings on record: displacement of [3H]-PGD2 (1 nM) from CHO-K1-hCRTH2 cell membranes, 3 h room temperature. How it is done: Preparation of Human CRTH2 Receptor Membranes and Radioligand Binding Assay
The binding of CRTH2 antagonists is determined using membranes prepared from Chinese hamster ovary cells (CHO-K1 cells) transfected with the human CRTH2 receptor (CHO-K1-hCRTH2 cells, Perkin Elmer, Cat No ES-561-C). To produce cell membranes the CHO-K1-hCRTH2 cells are cultured in suspension in CHO SFMII medium supplemented with 400 μg/ml G418. The cells are harvested by centrifugation at 300 g for 10 min at room temperature. The cell pellet is resuspended in Phosphate Buffer Saline (PBS) including a protease inhibitor mix (Complete, Roche) and adjusted to a concentration of 10E7 cells/ml. The CHO-K1-hCRTH2 cells are disrupted by nitrogen […] to obtain the membrane preparation. Cell debris is removed by centrifugation (500 g at 4° C., 30 min) and the supernatant is transferred into fresh tubes followed by a second centrifugation at 40000 g for 1 h at 4° C. to sediment the membranes. The membranes are suspended in SPA incubation buffer (50 mM Tris HCl, 10 mM MgCl2, 150 mM NaCl, 1 mM EDTA, pH 7.4) without bovine serum albumin, homogenized by passing through a single use needle (Terumo, 23G×1″), and stored in aliquots at −80° C.
The CRTH2 receptor binding assay is performed in a scintillation proximity assay (SPA) format with the radioligand [^3H]-PGD2 (Perkin Elmer, NET616000MC). CHO-K1-hCRTH2 cell membranes are again homogenized by passing through a single use needle (Terumo, 23G×1″) and diluted in SPA incubation buffer in suitable concentrations (0.5-10 μg protein/well). The SPA assay is set up in 96 well microtiter plates (Perkin Elmer, CatNo. 6005040) in SPA incubation buffer with a final volume of 200 μl per well and final concentration of 50 mM Tris-HCl, 10 mM MgCl2, 150 mM NaCl, 1 mM EDTA pH 7.4, 0.1% bovine serum albumin). The SPA assay mixture contains 60 μl of the membrane suspension, 80 μl of Wheat Germ Agglutinin coated PVT beads (GE Healthcare, RPNQ-0001, 0.3 mg/well), 40 μl of [3H]-PGD2 diluted in SPA buffer to a final concentration of 1 nM (50 000 dpm) and 20 μl of the test compound (dissolved in dimethylsulfoxid). The SPA assay mixture is incubated for 3 h at room temperature. Bound radioactivity is determined with a scintillation counter (Micro Beta Trilux, Wallac).
The binding of [^3H]-PGD2 to CHO-K1-hCRTH2 cell membranes is determined in the absence (total binding, Bo) and presence (non-specific binding, NSB) of unlabelled PGD2 (1 μM, Cayman Chemical, Cat No 12010) or a reference CRTH2 antagonist (10 μM CAY10471, Cayman Chemical, Cat No 10006735).
Determination of the affinity of a test compound is calculated by subtraction of the non-specific binding (NSB) from the total binding (Bo) or the binding in the presence of the test compound (B) at a given compound concentration. […] The Bo−NSB value is set to 0% inhibition.
(Loss of bound radioactivity is the signal in a displacement assay; it reports binding, not function.)
Turning to `CCc1nn(Cc2ccc(NC(=O)c3ccc(C(F)(F)F)cc3)cc2)c(CC)c1CC(=O)O` [Example 2.1], the Ki came out at 0.2 nM. `Cc1nn(Cc2ccc(OCc3ccc(Cl)c(C(F)(F)F)c3)cc2)c(C)c1CC(=O)O` [Example 13.5] yielded a Ki of 36 nM. The value for `Cc1nn(Cc2ccc(NC(=O)c3ccc(Cl)c(Cl)c3)cc2)c(-c2ccccc2)c1CC(=O)O` [Example 2.10] was 0.8 nM.

`Cc1nn(Cc2ccc(NC(=O)OCc3ccccc3)cc2)c(C)c1CCC(=O)O` [Example 3.2] yielded a Ki of 786 nM.

The compound `Cc1nn(Cc2ccc(NC(=O)c3ccc(C(C)(C)C)cc3)cc2)c(C)c1CC(=O)O` [Example 1.15] yielded a Ki of 0.2 nM. The compound `Cc1nn(Cc2ccc(NC(=O)OC(C)(C)C)cc2)c(C)c1CC(=O)O` [Example 3.8] showed a Ki of 28.6 nM. Compared with the last compound, the Ki is about 140-fold higher. Consider `Cc1nn(Cc2ccc(NC(=O)c3ccc4ccccc4c3C)cc2)c(C)c1CC(=O)O` [Example 1.26], for which the Ki came to 36 nM. In turn, `Cc1nn(Cc2ccc(C(=O)Nc3cccc(C(F)(F)F)c3)cc2)c(C)c1CC(=O)O` [Example 9.5] gave a Ki of 13.7 nM. The value for `COc1c(CC(=O)O)c(C)nn1Cc1ccc(NC(=O)c2ccc3ccccc3c2)cc1` [Example 2.60] was 4.2 nM; that for `Cc1nn(Cc2ccc(NC(=O)OCc3ccc4ccccc4c3)cc2)c(C)c1CC(=O)O` [Example 3.7] was 0.6 nM; that for `CCc1c(CC(=O)O)c(C2CC2)nn1Cc1ccc(NC(=O)c2cccc3ccccc23)cc1` [Example 2.51] was 3.5 nM. The value for `Cc1cc(Cl)ccc1C(=O)Nc1ccc(Cn2nc(C)c(CC(=O)O)c2C)cc1` [Example 1.2] was 16.3 nM; that for `CCc1nn(Cc2ccc(C(=O)Nc3ccc(Br)c(F)c3)cc2)c(CC)c1CC(=O)O` [Example 9.16] was 6.7 nM. To `Cc1nn(Cc2ccc(NC(=O)c3ccc4ccccc4n3)cc2)c(C)c1CC(=O)O` [Example 1.9] belongs 28.3 nM; to `Cc1nn(Cc2ccc(NC(=O)/C=C/c3ccccc3)cc2Cl)c(C)c1CC(=O)O` [Example 7.11], 0.9 nM; to `Cc1nn(Cc2ccc(C(=O)Nc3ccc(Cl)c(Cl)c3)cc2)c(C)c1CC(=O)O` [Example 9.3], 8.7 nM.

On to `Cc1c(CC(=O)O)cnn1Cc1ccc(NC(=O)c2ccc3ccccc3c2)cc1` [Example 2.58], for which the Ki was 24.6 nM. To `CCc1c(CC(=O)O)c(C2CC2)nn1Cc1ccc(NC(=O)c2ccc(C(F)(F)F)cc2)cc1` [Example 2.47] belongs 0.1 nM; to `Cc1c(CC(=O)O)cnn1Cc1ccc(NC(=O)c2ccc3ccccc3c2)cc1` [Example 2.55], 21.6 nM; to `O=C(O)Cc1c(-c2ccccc2)nn(Cc2ccc(NC(=O)c3ccc(Cl)cc3)cc2)c1-c1ccccc1` [Example 2.43], 17.4 nM. The value for `CCc1nn(Cc2ccc(S(=O)(=O)Nc3ccc(C)c(Cl)c3)cc2)c(CC)c1CC(=O)O` [Example 10.3] was 16.1 nM; that for `Cc1cc(Cl)ccc1C(=O)Nc1ccc(Cn2nc(C)c(CC(=O)O)c2C)c(Cl)c1` [Example 7.7] was 3.4 nM.

Consider `CCc1nn(Cc2ccc(NC(=O)c3ccc(Br)cc3Cl)cc2)c(CC)c1CC(=O)O` [Example 2.22], for which the Ki is 1.9 nM. The compound `Cc1nn(Cc2ccc(NC(=O)CCc3ccccc3)cc2)c(C)c1CCC(=O)O` [Example 8.5] gave a Ki of 427 nM. For the compound `Cc1cc(Cl)ccc1C(=O)Nc1ccc(Cn2nc(C)c(CCC(=O)O)c2C)cc1` [Example 8.1], the Ki stood at 1660 nM. The compound `Cc1nn(Cc2ccc(NC(=O)c3ccccc3)cc2Cl)c(C)c1CC(=O)O` [Example 7.10] displayed an inhibition constant (Ki) of 5.5 nM.

On to `Cc1nn(Cc2ccc(CS(=O)(=O)c3ccc(Cl)c(Cl)c3)cc2)c(C)c1CC(=O)O` [Example 16.6], for which the Ki came to 853 nM. The value for `Cc1nn(Cc2ccc(NC(=O)C3CCC3)cc2)c(C)c1CC(=O)O` [Example 1.35] was 44.6 nM; that for `Cc1nn(Cc2ccc(NC(=O)OCc3ccccc3)cc2)c(C)c1CC(=O)O` [Example 3.1] was 3.8 nM; that for `Cc1nn(Cc2ccc(NC(=O)OCc3ccccc3)cc2Cl)c(C)c1CC(=O)O` [Example 3.13] was 4.7 nM.

`Cc1nn(Cc2ccc(NCc3ccc(Cl)cc3)cc2)c(C)c1CC(=O)O` [Example 6.1] gave a Ki of 438 nM. Compared with the last compound, the Ki is about 93-fold higher. To `CCc1nn(Cc2ccc(NC(=O)C3[C@H]4C[C@@H]5C[C@@H](C[C@H]3C5)C4)cc2)c(CC)c1CC(=O)O` (stereo partly shown) [Example 2.33] belongs 0.8 nM. The value for `CCc1nn(Cc2ccc(NC(=O)C3CCCC3)cc2)c(CC)c1CC(=O)O` [Example 2.32] was 2.6 nM. The compound `CCc1nn(Cc2ccc(C(=O)Nc3ccc4ccccc4n3)cc2)c(CC)c1CC(=O)O` [Example 9.23] registered a Ki of 4 nM. `CCc1nn(Cc2ccc(C(=O)N[C@@H]3CCC[C@H](c4ccccc4)C3)cc2)c(CC)c1CC(=O)O` [Example 9.22] came in with a Ki of 15.6 nM. Against the preceding compound, the Ki is about 3.9-fold higher. In turn, `Cc1nn(Cc2ccc(NC(=O)c3ccc4ccccc4c3)cc2F)c(C)c1CC(=O)O` [Example 7.20] showed a Ki of 2.2 nM. To `Cc1nn(Cc2ccc(NC(=O)c3ccc(Cl)cc3)cc2)c(C)c1CC(=O)O` [Example 1.6] belongs 3.5 nM; to `Cc1nn(Cc2ccc(NC(=O)c3ccc4ccccc4c3)cc2)c(C)c1CC(=O)O` [Example 1.7], 2.5 nM; to `CCc1nn(Cc2ccc(NC(=O)c3cccc(C)c3CC(C)C)cc2)c(CC)c1CC(=O)O` [Example 2.28], 17.1 nM. Compound `CCc1nn(Cc2ccc(C(=O)NCc3ccc(C(F)(F)F)cc3)cc2)c(CC)c1CC(=O)O` [Example 9.20] registered a Ki of 38 nM.

`CCc1nn(Cc2ccc(NC(=O)c3ccc(Cl)cc3C)cc2)c(C2CC2)c1CC(=O)O` [Example 2.49] had a Ki of 0.6 nM. Consider `Cc1cc(Cn2nc(C)c(CC(=O)O)c2C)ccc1NC(=O)c1ccc(C(F)(F)F)cc1` [Example 7.3], for which the Ki was 13.5 nM.

As to `Cc1cc(C)c(C(=O)Nc2ccc(Cn3nc(C)c(CC(=O)O)c3C)cc2)c(C)c1` [Example 1.24], the affinity corresponds to a Ki of 553 nM. Consider `Cc1nn(Cc2ccc(CSc3ccc(C(F)(F)F)cc3)cc2)c(C)c1CC(=O)O` [Example 16.1], for which the affinity corresponds to a Ki of 992 nM. `CCc1nn(Cc2ccc(NC(=O)c3cccc(C)c3Br)cc2)c(CC)c1CC(=O)O` [Example 2.25] yielded a Ki of 46.6 nM. Compound `CCc1nn(Cc2ccc(NC(=O)c3ccc(C(F)(F)F)cc3)cc2)c(C2CC2)c1CC(=O)O` [Example 2.50] came in with an inhibition constant Ki of 0.1 nM. With `Cc1nn(Cc2ccc(NC(=O)c3ccccc3)cc2)c(C)c1CC(=O)O` [Example 1.3], the affinity, expressed as Ki, was 30.8 nM. For the compound `CCc1nn(Cc2ccc(NC(=O)C(C)(C)C)cc2)c(CC)c1CC(=O)O` [Example 2.30], the Ki worked out at 5.8 nM. Compound `CCc1nn(Cc2ccc(NC(=O)C(C)C)cc2)c(CC)c1CC(=O)O` [Example 2.34] showed an inhibition constant (Ki) of 4.3 nM. The value for `CCc1nn(Cc2ccc(C(=O)Nc3ccc(F)c(Br)c3)cc2)c(CC)c1CC(=O)O` [Example 9.14] was 3.1 nM; that for `CCc1nn(Cc2ccc(NC(=O)C3CCC3)cc2)c(CC)c1CC(=O)O` [Example 2.31] was 5 nM; that for `CCc1nn(C(C)c2ccc(NC(=O)c3ccc(C(F)(F)F)cc3)cc2)c(CC)c1CC(=O)O` (stereo not shown) [Example 17.1] was 0.1 nM.
